Numbered stars: 1 amine (or outer) side, 2 acyl side, 3 side chain; on linkers, the order of the positions; unused ones are H or OH. Bridge positions count the residues as written; N and C are the ends. Square brackets hold non-standard residues; d marks the D form. Side chains are listed from the residue outwards. Ends that are not written are not given here. * marks the point of attachment. C18 diacid = O=C(O)CCCCCCCCCCCCCCCCC(=O)*; γGlu = O=C(O)[C@H](CCC(=O)[*:2])N[*:1]; αMeF = C[C@](N)(Cc1ccccc1)C(=O)O
Tests used:
DIO Sprague-Dawley rats [1] = assay: Example 6 Study 3: 28-day treatment and 14-day wash-out; type: in vivo, rat
Experimental: Study 3 Design: Male DIO Sprague-Dawley rats (Charles River Laboratories) were fed a high-fat diet (32.5% kcal fat, D12266B; […] Rats were dosed SC QD for 28 days with Vehicle (n=16), GLP-1RA at 5 nmol/kg (n=16), LAA (“SARA”) at 7.5 nmol/kg (n=16), or GLP1RA+LAA at 5+7.5 nmol/kg respectively (n=16). Following 28 days of treatment half the animals per group stopped treatment and were allowed to wash-out for 14 days (n=8/group), while the remaining animals per group were euthanized with blood/tissues collected. Body weight and food intake were measured daily, and body composition was measured before study start, on day 27 and then again on day 42. Data reported as mean±standard error of the mean (SEM); data analysis performed using GraphPad Prism. In this experiment, the LAA was that of SEQ ID NO: 11, and the GLP-1RA was semaglutide.

[2] = molecular target: T1, rat amylin receptor (calcitonin receptor plus RAMP3) (Rattus norvegicus, UniProt P32214+Q9JJ73); assay: Target engagement estimate (unbound Cmax / unbound in vitro potency), amylin receptor; conditions: LAA 30 nmol/kg vs DACRA 10 nmol/kg
T1 construct: expressed in transfected cells; host or cells: HEK293
T1 sequence (P32214 25-516): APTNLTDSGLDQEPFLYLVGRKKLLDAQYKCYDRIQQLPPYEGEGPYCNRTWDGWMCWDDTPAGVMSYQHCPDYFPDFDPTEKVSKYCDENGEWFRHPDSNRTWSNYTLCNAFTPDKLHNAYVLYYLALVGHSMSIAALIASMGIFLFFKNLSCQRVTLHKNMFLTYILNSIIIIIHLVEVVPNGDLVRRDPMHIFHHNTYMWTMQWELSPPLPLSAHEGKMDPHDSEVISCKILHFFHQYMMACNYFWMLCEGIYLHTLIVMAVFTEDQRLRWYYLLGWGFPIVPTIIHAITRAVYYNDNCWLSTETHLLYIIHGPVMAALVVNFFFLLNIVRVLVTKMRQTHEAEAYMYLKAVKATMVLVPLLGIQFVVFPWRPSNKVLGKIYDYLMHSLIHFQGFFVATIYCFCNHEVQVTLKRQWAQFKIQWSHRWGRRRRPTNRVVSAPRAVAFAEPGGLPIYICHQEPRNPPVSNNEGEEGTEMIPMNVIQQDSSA
T1 sequence (Q9JJ73 23-147 partner): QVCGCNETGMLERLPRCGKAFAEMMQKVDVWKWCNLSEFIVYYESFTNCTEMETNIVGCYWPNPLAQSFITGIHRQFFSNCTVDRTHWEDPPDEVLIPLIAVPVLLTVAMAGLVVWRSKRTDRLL
Experimental: Target engagement was estimated in the following way for each compound. The maximum concentration (Cmax) after subcutaneous injection was measured in separate rat pharmacokinetic studies and was dose-adjusted to the tested dose levels when appropriate, assuming dose linearity. Plasma protein binding was determined in vitro using 3B Pharmaceutical's Escalate Equilibrium Shift Assay or an in-house Surface Plasmon Resonance (SPR) assay. Peptide in vitro potency was determined via HTRF CAMP accumulation assay using HEK293 cells recombinantly expressing the rat calcitonin receptor or rat amylin receptor (calcitonin receptor plus RAMP3) in saline buffer containing 0.1% bovine serum albumin. The in vitro potencies (IC50s) for amylin and calcitonin were adjusted to unbound values by taking into account the albumin concentration in the assay and fraction unbound data, according to an established method (Wan H and Bergström F (2007), High Throughput Screening of Drug-Protein Binding in Drug Discovery, Journal of Liquid Chromatography & Related Technologies, 30:5, 681-700; doi: 10.1080/10826070701190989). Finally, the target engagement was calculated as the unbound Cmax divided by the unbound IC50, both for amylin and calcitonin. […] Uncertainty of parameter estimates was determined by bootstrapping, sampling single measurements randomly with replacement within each experiment (N=500). […]

DIO rat = assay: Example 3: repeat dose DIO rat gastric emptying study; type: in vivo; conditions: 2 nmol/kg monotherapy, beyond 7 days of treatment
Source text: Study Design: […] X-ray fluoroscopic quantification was used to assess gastric emptying. In this experiment, the LAA was that of SEQ ID NO: 11, and the GLP-1R agonist was semaglutide.

DIO Sprague-Dawley rats [3] = assay: Example 6 Study 2: 4-week LAA, GLP-1RA or both; type: in vivo, rat; conditions: QD SC 4 weeks; LAA 7.5 nmol/kg, GLP-1RA 5 nmol/kg, or both; FIG. 5H
Experimental: Study 2 Design: Male DIO Sprague-Dawley rats were injected QD SC with either vehicle, LAA 7.5 nmol/kg, GLP-1RA 5 nmol/kg, or both, for 4 weeks. Monotherapy doses were selected to achieve matching BW loss. BW and food intake were measured daily, and body composition was measured at baseline and end of study.

DIO Sprague-Dawley rats [4] = assay: Example 3: 28-day body weight study in DIO rats; type: in vivo, rat; conditions: day 28; LAA 7.5 nmol/kg SC QD
Experimental: Study Design: Male DIO Sprague-Dawley rats were fed a high-fat diet (32.5% kcal fat, D12266B; Research Diets) for approximately 8 weeks prior to study start. Rats were dosed once daily SC for 28 days with Vehicle, GLP-1/GCG (1.5 nmol/kg or 5 nmol/kg), LAA (7.5 nmol/kg) or a combination of GLP-1/GCG and LAA (1.5 and 7.5 nmol/kg, or 5 nmol/kg and 7.5 nmol/kg, respectively) with an n=6/group. Body weight was monitored daily throughout the study. Data reported as mean±standard error of the mean (SEM); data analysis performed using GraphPad Prism-statistical analysis performed using One-way ANOVA with Tukey ad hoc analysis (*p<0.05, **p<0.01, ***0<0.001, ****p<0.0001). In this experiment, the LAA was that of SEQ ID NO: 11, and the GLP-1/GCG dual-agonist was cotadutide.

K(γE-γE-C18diacid)[CNTATC]ATQRLANFLRHSSNN(αMePhe)GPILPPTEVGSNTY-amide (K([γGlu-γGlu-C18 diacid])CNTATCATQRLANFLRHSSNN[αMeF]GPILPPTEVGSNTY-NH2; disulfide 2-7) [LAA]
inhibition of food intake compared to vehicle (DIO Sprague-Dawley rats [1]; SC QD 28 days, LAA 7.5, GLP-1RA 5, or 5+7.5 nmol/kg): ~−20%
BW loss compared to vehicle (DIO Sprague-Dawley rats [1]; SC QD 28 days, LAA 7.5, GLP-1RA 5, or 5+7.5 nmol/kg, FIG. 5I): −9.3%
lean mass change (DIO Sprague-Dawley rats [1]; baseline to day 27, FIG. 5K): preservation of lean mass
fat mass change from baseline (DIO Sprague-Dawley rats [1]; baseline to day 27, LAA 7.5, GLP-1RA 5, or 5+7.5 nmol/kg, FIG. 5J): -17.7 g
amylin receptor engagement, fold more than DACRA [2]: ~28 fold
GE delay on repeat dosing (DIO rat): maintained GE delay beyond 7 days of treatment
fat mass change from baseline (DIO Sprague-Dawley rats [3]): greater loss of fat mass than GLP-1RA monotherapy
mean change in body weight normalized to Vehicle (DIO Sprague-Dawley rats [4]): −13.7%

— patent publication US20260091086A1, “POLYPEPTIDE COMBINATIONS AND USES THEREOF” (MEDIMMUNE LIMITED, priority 2024, published 2026)
